Data from patent US20210284659A1, “INHIBITORS OF BETA SECRETASE” (Janssen Pharmaceutica NV, priority 2017, published 2021).

What was measured:
[1] = target: recombinant BACE1 protein (Homo sapiens, UniProt P56817); test: BACE1 biochemical FRET based assay; conditions: 450 min at room temperature, 20 μM substrate, pH 5.0
Source text: (§1) This assay is a Fluorescence Resonance Energy Transfer Assay (FRET) based assay. The substrate for this assay is an APP derived 13 amino acids peptide that contains the ‘Swedish’ Lys-Met/Asn-Leu mutation of the amyloid precursor protein (APP) beta-secretase cleavage site. This substrate also contains two fluorophores: (7-methoxycoumarin-4-yl) acetic acid (Mca) is a fluorescent donor with excitation wavelength at 320 nm and emission at 405 nm and 2,4-Dinitrophenyl (Dnp) is a proprietary quencher acceptor. […] Upon cleavage by BACE1, the fluorophore Mca is separated from the quenching group Dnp, restoring the full fluorescence yield of the donor. The increase in fluorescence is linearly related to the rate of proteolysis.
Briefly in a 384-well format recombinant BACE1 protein in a final concentration of 0.04 μg/ml is incubated for 450 minutes at room temperature with 20 μM substrate in incubation buffer (50 mM Citrate buffer pH 5.0, 0.05% PEG) in the presence of compound or DMSO. Next the amount of proteolysis is directly measured by fluorescence measurement (excitation at 320 nm and emission at 405 nm) at different incubation times (0, 30, 60, 90, 120 and 450 min). For every experiment a time curve (every 30 min between 0 min and 120 min) is used to determine the time where we find the lowest basal signal of the high control. The signal at this time (Tx) is used to subtract from the signal at 450 min. Results are expressed in RFU, as difference between T450 and Tx.
(§2) A best-fit curve is fitted by a minimum sum of squares method to the plot of % Controlmin versus compound concentration. From this an IC50 value (inhibitory concentration causing 50% inhibition of activity) can be obtained.

[2] = system: Abeta 1-42 produced and secreted by human neuroblastoma SKNBE2 cells expressing wild type hAPP695; test: Cellular αLisa assay in SKNBE2 cells, Abeta 1-42; type: cell-based; conditions: 18 hours incubation, read-out: Cellular αLisa assay in SKNBE2 cells Abeta 42 pIC50 (converted)
Description: In two αLisa assays the levels of Abeta total and Abeta 1-42 produced and secreted into the medium of human neuroblastoma SKNBE2 cells are quantified. The assay is based on the human neuroblastoma SKNBE2 expressing the wild type Amyloid Precursor Protein (hAPP695). The compounds are diluted and added to these cells, incubated for 18 hours and then measurements of Abeta 1-42 and Abeta total are taken. Abeta total and Abeta 1-42 are measured by sandwich αLisa. αLisa is a sandwich assay using biotinylated antibody AbN/25 attached to streptavidin coated beads and antibody Ab4G8 or cAb42/26 conjugated acceptor beads for the detection of Abeta total and Abeta 1-42 respectively. In the presence of Abeta total or Abeta 1-42, the beads come into close proximity. The excitation of the donor beads provokes the release of singlet oxygen molecules that trigger a cascade of energy transfer in the acceptor beads, resulting in light emission. Light emission is measured after 1 hour incubation (excitation at […] and emission at 615 nm).
as §2

[3] = target: T1, recombinant BACE2 protein (Homo sapiens, UniProt Q9Y5Z0); test: BACE2 biochemical FRET based assay; conditions: 450 min at room temperature, 10 μM substrate, pH 5.0
T1 sequence (Q9Y5Z0 63-518): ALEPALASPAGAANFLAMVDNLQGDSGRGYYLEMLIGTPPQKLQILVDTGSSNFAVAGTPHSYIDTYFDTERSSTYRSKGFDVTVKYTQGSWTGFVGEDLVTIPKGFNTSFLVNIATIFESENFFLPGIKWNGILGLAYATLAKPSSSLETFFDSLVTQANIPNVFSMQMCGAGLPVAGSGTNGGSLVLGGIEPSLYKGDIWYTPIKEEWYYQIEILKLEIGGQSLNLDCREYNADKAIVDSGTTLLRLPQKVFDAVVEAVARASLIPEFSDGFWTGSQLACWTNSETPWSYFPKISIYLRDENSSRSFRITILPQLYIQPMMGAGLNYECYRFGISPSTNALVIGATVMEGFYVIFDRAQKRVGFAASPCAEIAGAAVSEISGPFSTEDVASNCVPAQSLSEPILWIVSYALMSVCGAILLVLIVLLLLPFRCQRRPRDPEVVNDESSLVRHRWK
Source text: as §1, with “assay” for “assay is an APP derived 13 amino acids peptide that”, “the beta-secretase,” for “BACE1,”
Briefly in a 384-well format recombinant BACE2 protein in a final concentration of 0.4 μg/ml is incubated for 450 minutes at room temperature with 10 μM substrate in incubation buffer (50 mM Citrate buffer pH 5.0, 0.05% PEG, no DMSO) in the absence or presence of compound. Next the amount of proteolysis is directly measured by fluorescence measurement at T=0 and T=450 (excitation at 320 nm and emission at 405 nm). Results are expressed in RFU (Relative Fluorescence Units), as difference between T450 and TO.
as §2

β-secretase I (BACE1) = β-secretase I (BACE1) (Homo sapiens, UniProt P56817); test: Automated (CyclOps) biochemical assay BACE1; conditions: 37 °C, 60 min, pH 5.0; read-out: Automated assay BACE1 pIC50 (converted)
β-secretase I (BACE1), sequence (P56817 46-501): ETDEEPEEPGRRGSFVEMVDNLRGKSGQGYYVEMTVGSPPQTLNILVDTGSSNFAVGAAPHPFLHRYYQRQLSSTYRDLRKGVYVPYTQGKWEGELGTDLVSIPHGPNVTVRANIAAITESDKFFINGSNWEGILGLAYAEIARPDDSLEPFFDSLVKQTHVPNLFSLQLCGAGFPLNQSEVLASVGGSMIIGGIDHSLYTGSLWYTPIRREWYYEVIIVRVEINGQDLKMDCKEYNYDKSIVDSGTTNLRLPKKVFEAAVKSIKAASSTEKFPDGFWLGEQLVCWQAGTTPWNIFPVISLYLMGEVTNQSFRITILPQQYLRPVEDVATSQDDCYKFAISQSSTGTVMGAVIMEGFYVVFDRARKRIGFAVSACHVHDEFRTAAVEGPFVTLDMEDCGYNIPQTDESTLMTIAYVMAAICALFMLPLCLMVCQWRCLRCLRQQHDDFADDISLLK
Description: (§3) Unless otherwise indicated all biochemicals were purchased from Sigma-Aldrich Chemical Company, Poole, Dorset, U.K. and non-aqueous solvents, of analytical or higher grade, were purchased from ThermoFisher Scientific, Loughborough, U.K. MilliQ water (Elix 5 & MilliQ Gradient; Merck Millipore) was used as the base aqueous solvent to make up the biological buffers. Base assay buffer was prepared by adding a 50 mM solution of citric acid (1.00244; Merck Biosciences) to stirring solution of 50 mM trisodium citrate (1.06448; Merck Biosciences) until a final pH of 5.0 was achieved. […] All assays were routinely carried out in 384-well assay plates (Costar 4514; Corning Life Sciences) and incubated at 37±1° C. for 60 min. prior to reading the endpoint fluorescence intensity. The (7-methoxyl coumarin-4-yl)acetic acid based substrate 0-secretase substrate VI (M2465; Bachem) was prepared as a 1 mM stock in 100% DMSO (D/4121/PB08; ThermoFisher). Assay buffer was prepared by adding DMSO to base buffer to a final concentration of 1% (vol./vol.). β-secretase I (18.64 μM; “BACE1”) and β-secretase II (4.65 μM; “BACE2”) were obtained from Janssen Pharmaceutica, Beerse, Belgium and were stored as frozen aliquots (˜20 μl) and thawed as required.
(§4) The CyclOps bioassay module consisted of a fraction collection station, a reagent station, liquid handling robotics, plate store and an integrated plate reader (SpectraMAX Paradigm, TUNE cartridge, SoftMax Pro v 6.3; Molecular Devices). The fraction collection station composed of a 384 well collection plate (P-384-240SQ-C; Axygen, Union City, Calif., USA) mounted on a H-portal carriage (Festo AG & Co. KG, Esslingen, Germany), a syringe drive and a two-way six port injection valve fitted with a 200 μl loop (VICI AG International, Schenkon Switzerland). The output of the injection valve was addressable to all the positions of a 384 well collection plate. The reagent station consisted of hydraulically cooled (10-12° C.) aluminium segments; each manufactured to house a SBS microtiter plate footprint. Independent addressable reagent stations were housed within these sections. Where required, custom aluminium housings were used to accommodate standard laboratory plastic ware (e.g. Eppendorf tubes, Falcon tubes, etc.). As and when required the reagent reservoirs were covered and the lids contained holes through which the Teflon-coated probe could access solutions. The reagents present on the liquid handling system were: • Probe wash solution (˜150 ml; 33.3:33.3:33.3 water:propan-2-ol (P/7508/17; ThermoFisher):methanol (M/4058/17; ThermoFisher) contained in a covered reagent reservoir (390007; Porvair Sciences Ltd., Leatherhead, UK). • Assay buffer solution • HPLC grade water • 40 nM BACE1 diluted in base buffer contained in a 5 ml Eppendorf tube (0030 119.401; Eppendorf) • 400 nM BACE2 diluted in 25 mM tris (648311; Merck Biosciences, Nottingham, U.K.), pH 7.5 containing 100 mM sodium chloride and 20% glycerol (16374; USB Corp., Cleveland, Ohio, USA) contained in a 1.5 ml Eppendorf tube (0030 000.919; Eppendorf) • 1 mM substrate in 100% DMSO contained in a 1.5 ml Eppendorf tube (maintained at ambient temperature) • Two empty 1.5 ml Eppendorf tubes
(§5) The liquid handling system composed of a LISSY system (Zinsser Analytik GmbH, Frankfurt, Germany) equipped with gripper arm and single teflon-coated stainless steel probe. […]

β-secretase II (BACE2) = target: T2, β-secretase II (BACE2) (Homo sapiens, UniProt Q9Y5Z0); test: Automated (CyclOps) biochemical assay BACE2; conditions: 37 °C, 60 min, pH 5.0; read-out: Automated assay BACE2 pIC50 (converted)
T2 sequence (Q9Y5Z0 63-518): T1 sequence (Q9Y5Z0 63-518)
Description: as §3, §4, §5

recombinant BACE1 protein, sequence (P56817 46-501): as above

Biochemical FRET based assay pIC50 [1]	IC50 [2] [nM]	Biochemical FRET based assay pIC50 [3]	IC50 (β-secretase I (BACE1)) [nM]	IC50 (β-secretase II (BACE2)) [nM]	Structure (SMILES)
			61.7	110	COc1ncc(Cc2cccc(Cl)c2)c2c1C[C@]1(c3ccc(F)cc3F)N=C(N)SC[C@@H]1C2 [Compound 7]
			195	219	COc1cc(Cc2cnc(OC)c3c2C[C@H]2CSC(N)=N[C@@]2(c2ccc(F)cc2F)C3)cc(OC)c1 [Compound 8]
7.99	42.7	6.56			COc1ncc(Cc2c(C)cccc2C)c2c1C[C@]1(c3ccc(F)cc3F)N=C(N)SC[C@@H]1C2 [Compound 9]

Continued, compound first:

Structure (SMILES)	Biochemical FRET based assay pIC50 [1]	IC50 [2] [nM]	Biochemical FRET based assay pIC50 [3]	IC50 (β-secretase I (BACE1)) [nM]	IC50 (β-secretase II (BACE2)) [nM]
COc1ccc(Cc2cnc(OC)c3c2C[C@H]2CSC(N)=N[C@@]2(c2ccc(F)cc2F)C3)cc1 [Compound 5]	7.64	67.6	7.1	49	204
COc1ncc(CC2CCOCC2)c2c1C[C@]1(c3ccc(F)cc3F)N=C(N)SC[C@@H]1C2 [Compound 1]	8.52	0.759	8.18		
COc1ncc(Cc2ccccc2C)c2c1C[C@]1(c3ccc(F)cc3F)N=C(N)SC[C@@H]1C2 [Compound 3]				22.9	355
COc1cccc(Cc2cnc(OC)c3c2C[C@H]2CSC(N)=N[C@@]2(c2ccc(F)cc2F)C3)c1 [Compound 6]				75.9	191
COc1ncc(Cc2c(C)noc2C)c2c1C[C@]1(c3ccc(F)cc3F)N=C(N)SC[C@@H]1C2 [Compound 2]	8.23	2.63	7.36		
